In patent publication US7179832B2, “Glycogen synthase kinase 3β inhibitor, composition and process for the preparation thereof” (Crystalgenomics, Inc., priority 2003, dated 2007):

target: GSK-3β (Homo sapiens, UniProt P49841); assay: Assay for GSK-3β inhibiting activity (32P-ATP, phospho-CREB peptide substrate, filter paper, CPM); type: biochemical; conditions: GSK-3β inhibiting activity; 100 nM GSK-3β protein, 100 μM phospho-CREB peptide, 100 μM ATP, 30° C. for 1 hour; read-out: IC50
Description: Assay for GSK-3β inhibiting activity
First, PCR (polymerase chain reaction) was carried out using human DNA as a template as well as primers which were designed to correspond to the 3′- and 5′ ends of the polynucleotide coding human GSK-3β gene (Genbank Accession No.: L33801). The BamH1/XhoI fragment of the amplified PCR product thus obtained was inserted into the pGex vector between the BamH1 and XhoI sites, and the vector obtained was transformed into E. coli BL21(DE3). The transformed cells thus obtained was incubated in […] (1% Bacto-trypton, 0.5% yeast extract, 1% NaCl) containing ampicillin ([…]) until the optical density at 600 nm reached about 0.5. The cultured mixture was cooled to 18° C. and isopropyl β-D-thiogalacto-pyranoside (IPTG) was added thereto to a final concentration of 0.5 mM. After 16 hours, the resultant was centrifuged at 10,000×g for 10 min, the collected cells were suspended in a buffer solution (30 mM Tris-HCl (pH 7.5), 100 mM NaCl, 5% glycerol, 2 mM DTT) and the cells were disrupted using Sonic Dismembrator (Fisher, U.S.A.) in a ice bath. The resulting solution was centrifuged at 16,000 rpm for 30 minutes. […] The purified GSK-3β protein was diluted in a buffer solution (20 mM HEPES (pH 7.5), 5% glycerol, 2 mM DTT) to a final concentration of 50 mM NaCl and the resulting solution was subjected to mono S column chromatography (eluent: linear gradient from 0M to 1M NaCl buffer) using mono S column (Pharmacia Biotech, U.S.A.) equilibrated in the same buffer solution to obtain GSK-3β protein.
The reaction was stopped by adding 5 μl of 5% phosphoric acid to 25 μl of the resulting solution. The resulting mixture was centrifuged at 15,000 rpm for 10 min, 20 μl of the supernatant was added dropwise to Whatman p81 filter paper, and then, the resulting filter paper was washed with 0.5% phosphate buffer for 10 min. The filter paper was further washed 3 times and the enzymatic activity was determined by examining the extent of phospho-CREB peptide phosphorylation which is represented by the unit of count per minute (CPM), measured with a β-counter (Packard, USA).
The GSK-3β inhibiting activity was then calculated in accordance with the following equation:
[formula] wherein the blank represents a value obtained without the use of the enzyme and the compound of the present invention, and the control, in the absence of the compound of the present invention.

Chain of GSK-3β (P49841 whole entry): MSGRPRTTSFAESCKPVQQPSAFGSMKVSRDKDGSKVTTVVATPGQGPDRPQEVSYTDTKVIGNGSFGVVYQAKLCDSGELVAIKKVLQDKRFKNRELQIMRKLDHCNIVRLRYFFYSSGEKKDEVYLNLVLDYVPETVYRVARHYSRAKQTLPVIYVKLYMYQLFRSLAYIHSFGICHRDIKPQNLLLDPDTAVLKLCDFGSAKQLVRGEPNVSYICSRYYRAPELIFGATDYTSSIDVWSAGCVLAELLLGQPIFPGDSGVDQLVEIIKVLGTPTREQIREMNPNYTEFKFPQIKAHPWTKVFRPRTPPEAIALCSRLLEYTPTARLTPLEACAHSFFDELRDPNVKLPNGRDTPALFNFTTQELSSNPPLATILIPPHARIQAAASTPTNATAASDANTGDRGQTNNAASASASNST

Going from CC(=O)Nc1ccc(CCNC(=O)c2ccc(O)c3[nH]c(-c4ccc(Cl)cc4Cl)nc23)cc1 [Compound 112] to CCS(=O)(=O)NCCc1ccc(NC(=O)c2ccc(O)c3[nH]c(-c4ccc(Cl)cc4Cl)nc23)cc1 [Compound 32], the IC50 rises from 0.04 µM to 0.5 µM (12-fold).

Going from CS(=O)(=O)NCCc1ccc(NC(=O)c2ccc(O)c3[nH]c(-c4ccc(Cl)cc4)nc23)cc1 [Compound 17] to CCS(=O)(=O)NCCc1ccc(NC(=O)c2ccc(O)c3[nH]c(-c4ccc(Cl)cc4)nc23)cc1 [Compound 20], the IC50 rises from 0.24 µM to 4.1 µM (17-fold).

O=C(Nc1ccccc1)c1ccc(O)c2[nH]c(-c3ccc(Cl)cc3Cl)nc12 [Compound 22] and O=C(NCCc1ccccn1)c1ccc(O)c2[nH]c(-c3ccc(Cl)cc3Cl)nc12 [Compound 111] cannot be ordered by IC50: greater than 1 µM for the first, greater than 1 µM for the second.

First: CCN1CCN(CC(=O)Nc2ccc(CCNC(=O)c3ccc(O)c4[nH]c(-c5ccc(Cl)cc5)nc34)cc2)CC1 [Compound 87]
Second: CCN1CCN(CC(=O)Nc2ccc(CCNC(=O)c3ccc(O)c4[nH]c(-c5ccc(F)cc5)nc34)cc2)CC1 [Compound 128]
The IC50 of the first is 1.5-fold higher: 0.23 µM for the first, 0.15 µM for the second. The second is the more potent here.

Compared with CCN(CC)CC(=O)Nc1ccc(CCNC(=O)c2ccc(O)c3[nH]c(-c4ccc(F)cc4)nc23)cc1 [Compound 130], CN(C)CC(=O)Nc1ccc(CCNC(=O)c2ccc(O)c3[nH]c(-c4ccc(F)cc4)nc23)cc1 [Compound 129] is 2.8-fold lower in IC50: 0.33 µM for the first, 0.12 µM for the second. The second is the more potent here.

Compared with Cc1cn(CCCNC(=O)c2ccc(O)c3[nH]c(-c4ccc(F)cc4Cl)nc23)cn1 [Compound 199], Cc1nccn1CCCNC(=O)c1ccc(O)c2[nH]c(-c3ccc(F)cc3Cl)nc12 [Compound 201] is 7-fold higher in IC50: 0.01 µM for the first, 0.07 µM for the second.

Compared with CCS(=O)(=O)NCCc1ccc(NC(=O)c2ccc(O)c3[nH]c(-c4ccc(F)cc4)nc23)cc1 [Compound 35], CCS(=O)(=O)NCCc1ccc(NC(=O)c2ccc(O)c3[nH]c(-c4ccc(F)c(Cl)c4)nc23)cc1 [Compound 44] is higher in IC50: 0.007 µM for the first, greater than 1 µM for the second. The first is the more potent here.

Compared with O=C(CN1CCOCC1)Nc1ccc(CCNC(=O)c2ccc(O)c3[nH]c(-c4ccc(Cl)cc4)nc23)cc1 [Compound 92], CN1CCN(CC(=O)Nc2ccc(CCNC(=O)c3ccc(O)c4[nH]c(-c5ccc(Cl)cc5)nc34)cc2)CC1 [Compound 86] is 3.1-fold higher in IC50: 0.08 µM for the first, 0.25 µM for the second. The first is the more potent here.

Going from Cc1ccc(S(=O)(=O)Nc2ccc(NCCNC(=O)c3ccc(O)c4[nH]c(-c5ccc(F)cc5Cl)nc34)nc2)cc1 [Compound 153] to Cc1ccc(S(=O)(=O)Nc2ccc(CCNC(=O)c3ccc(O)c4[nH]c(-c5ccc(F)cc5Cl)nc34)cc2)cc1 [Compound 144], the IC50 falls from 0.05 µM to 0.006 µM (8.3-fold). The second is the more potent here.

Compared with O=C(NCCCn1ccnc1)c1ccc(O)c2[nH]c(-c3ccc(F)cc3Cl)nc12 [Compound 198], O=C(NCCCn1ccnc1)c1ccc(O)c2[nH]c(-c3ccccc3)nc12 [Compound 165] is 4-fold higher in IC50: 0.02 µM for the first, 0.08 µM for the second.

O=C(NCCN1CCOCC1)c1ccc(O)c2[nH]c(-c3ccccc3)nc12 [Compound 66] and O=C(NCCCN1CCOCC1)c1ccc(O)c2[nH]c(-c3ccc(Cl)cc3)nc12 [Compound 171] cannot be ordered by IC50: greater than 1 µM for the first, greater than 1 µM for the second.

First: CCCCNC(=O)c1ccc(O)c2[nH]c(-c3ccccc3)nc12 [Compound 162]
Second: Cc1nccn1CCCNC(=O)c1ccc(O)c2[nH]c(-c3ccccc3)nc12 [Compound 167]
The IC50 of the first is 2.4-fold higher: 0.24 µM for the first, 0.1 µM for the second.

First: O=C(NCCc1ccc(OCCN2CCOCC2)cc1)c1ccc(O)c2[nH]c(-c3ccc(F)cc3)nc12 [Compound 136]
Second: O=C(NCCc1ccc(O)cc1)c1ccc(O)c2[nH]c(-c3ccc(F)cc3)nc12 [Compound 121]
The IC50 of the first is 8-fold higher: 0.24 µM for the first, 0.03 µM for the second.

Cc1ccc(S(=O)(=O)NCCc2ccc(NC(=O)c3ccc(O)c4[nH]c(-c5ccc(F)cc5F)nc34)cc2)cc1 [Compound 38] and Cc1ccc(S(=O)(=O)NCCc2ccc(NC(=O)c3ccc(O)c4[nH]c(-c5ccc(F)cc5Cl)nc34)cc2)cc1 [Compound 40] cannot be ordered by IC50: greater than 1 µM for the first, greater than 1 µM for the second.

CS(=O)(=O)NCCc1ccc(NC(=O)c2ccc(O)c3[nH]c(-c4ccc(F)cc4F)nc23)cc1 [Compound 37] and CCS(=O)(=O)NCCc1ccc(NC(=O)c2ccc(O)c3[nH]c(-c4ccc(F)cc4F)nc23)cc1 [Compound 39] cannot be ordered by IC50: greater than 1 µM for the first, greater than 1 µM for the second.

Going from CCCCC(=O)Nc1ccc(CCNC(=O)c2ccc(O)c3[nH]c(-c4ccc(F)cc4)nc23)cc1 [Compound 120] to CCCCC(=O)Nc1ccc(CCNC(=O)c2ccc(O)c3[nH]c(-c4ccc(F)cc4Cl)nc23)cc1 [Compound 149], the IC50 rises from 0.07 µM to 0.14 µM (2-fold). The first is the more potent here.

O=C(NCCc1cccc(Br)c1)c1ccc(O)c2[nH]c(-c3ccc(Cl)cc3)nc12 [Compound 98] and Nc1ccc(CCNC(=O)c2ccc(O)c3[nH]c(-c4ccc(Cl)cc4)nc23)cc1 [Compound 73] cannot be ordered by IC50: greater than 1 µM for the first, greater than 1 µM for the second.

CN(C)CC(=O)Nc1ccc(CCNC(=O)c2ccc(O)c3[nH]c(-c4ccc(Cl)cc4)nc23)cc1 [Compound 88] and CN(C)CC(=O)Nc1ccc(CCNC(=O)c2ccc(O)c3[nH]c(-c4ccc(F)cc4Cl)nc23)cc1 [Compound 158] are within 1.5-fold of each other in IC50: 0.22 µM for the first, 0.23 µM for the second.

First: CCc1nccn1CCCNC(=O)c1ccc(O)c2[nH]c(-c3ccc(F)cc3F)nc12 [Compound 196]
Second: O=C(NCCCn1cnc(Cl)c1Cl)c1ccc(O)c2[nH]c(-c3ccc(F)cc3F)nc12 [Compound 197]
The IC50 of the first is 6.7-fold higher: 0.02 µM for the first, 0.003 µM for the second.

First: Cc1ccc(S(=O)(=O)NCCc2ccc(NC(=O)c3ccc(O)c4[nH]c(-c5ccc(Cl)cc5Cl)nc34)cc2)cc1 [Compound 28]
Second: Cc1ccc(S(=O)(=O)NCCc2ccc(NC(=O)c3ccc(O)c4[nH]c(-c5ccccc5)nc34)cc2)cc1 [Compound 9]
The IC50 of the first is 4.1-fold higher: 0.74 µM for the first, 0.18 µM for the second.

Going from COc1ccc(CCNC(=O)c2ccc(O)c3[nH]c(-c4ccccc4)nc23)cc1O [Compound 63] to COc1ccc(CCNC(=O)c2ccc(O)c3[nH]c(-c4ccc(Cl)cc4)nc23)cc1O [Compound 77], the IC50 falls from 0.45 µM to 0.033 µM (14-fold).

Going from O=C(Nc1ccc(CCN2C(=O)c3ccccc3C2=O)cc1)c1ccc(O)c2[nH]c(-c3ccc(Cl)cc3)nc12 [Compound 18] to O=C(NCCc1ccc(N2C(=O)c3ccccc3C2=O)cc1)c1ccc(O)c2[nH]c(-c3ccc(Cl)cc3Cl)nc12 [Compound 107], the IC50 falls from greater than 1 µM to 0.05 µM.

Going from CS(=O)(=O)Nc1ccc(NCCNC(=O)c2ccc(O)c3[nH]c(-c4ccc(F)cc4)nc23)nc1 [Compound 123] to CS(=O)(=O)Nc1ccc(CCNC(=O)c2ccc(O)c3[nH]c(-c4ccc(F)cc4)nc23)cc1 [Compound 114], the IC50 falls from 0.05 µM to 0.001 µM (50-fold). The second is the more potent here.

O=C(NCCCn1cnc(Cl)c1Cl)c1ccc(O)c2nc(-c3ccc(Cl)cc3Cl)[nH]c12 [Compound 182] and O=C(NCCCn1cnc(Cl)c1Cl)c1ccc(O)c2[nH]c(-c3ccc(F)cc3)nc12 [Compound 190] are within 1.5-fold of each other in IC50: 0.008 µM for the first, 0.006 µM for the second.

First: O=C(NCc1ccccc1)c1ccc(O)c2nc(-c3ccccc3)[nH]c12 [Compound 51]
Second: O=C(NCCc1ccccc1)c1ccc(O)c2nc(-c3ccccc3)[nH]c12 [Compound 57]
The IC50 of the first is 1.5-fold higher: 0.87 µM for the first, 0.58 µM for the second. The second is the more potent here.

Compared with CCS(=O)(=O)Nc1ccc(CCNC(=O)c2ccc(O)c3[nH]c(-c4ccc(Cl)cc4)nc23)cc1 [Compound 80], CCS(=O)(=O)Nc1ccc(CCNC(=O)c2ccc(O)c3[nH]c(-c4ccc(F)cc4F)nc23)cc1 [Compound 142] is 70-fold lower in IC50: 0.07 µM for the first, 0.001 µM for the second. The second is the more potent here.

O=C(NCCc1c[nH]cn1)c1ccc(O)c2[nH]c(-c3ccc(F)cc3)nc12 [Compound 125] and O=C(NCCc1c[nH]cn1)c1ccc(O)c2[nH]c(-c3ccc(F)cc3Cl)nc12 [Compound 154] cannot be ordered by IC50: greater than 1 µM for the first, greater than 1 µM for the second.

CCS(=O)(=O)NCCc1ccc(NC(=O)c2ccc(O)c3[nH]c(-c4ccccc4)nc23)cc1 [Compound 13] and Nc1ccc(CCNC(=O)c2ccc(O)c3nc(-c4ccccc4)[nH]c23)cc1 [Compound 60] are within 1.5-fold of each other in IC50: 0.36 µM for the first, 0.35 µM for the second.

Compared with O=C(NCCCN1CCCC1=O)c1ccc(O)c2[nH]c(-c3ccc(Cl)cc3Cl)nc12 [Compound 177], O=C(NCCc1ccccc1O)c1ccc(O)c2[nH]c(-c3ccc(Cl)cc3)nc12 [Compound 96] is 9.1-fold lower in IC50: 0.2 µM for the first, 0.022 µM for the second. The second is the more potent here.

O=C(NCc1ccc([N+](=O)[O-])cc1)c1ccc(O)c2[nH]c(-c3ccc(Cl)cc3)nc12 [Compound 53] gave an IC50 greater than 1 µM.

same assay, conditions: IC50 (μM)

O=C(CN1CCOCC1)Nc1ccc(CCNC(=O)c2ccc(O)c3nc(-c4ccc(F)cc4)[nH]c23)cc1 [Compound 134] gave an IC50 of 0.04 µM.
